Results taken from the supplement of paper PMC9663587.

What was measured:
Flavopiridol [1] = compound: T1, CN1CC[C@H](c2c(O)cc(O)c3c(=O)cc(-c4ccccc4Cl)oc23)[C@H](O)C1 [Flavopiridol]; experiment: GR value, 72 h; higher = faster growth (1 = untreated, <0 = killing);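 further: breast cancer and non-malignant breast epithelial lines, nine half-log doses, viable cells counted by Hoechst and LIVE/DEAD dye imaging versus time-zero plates and DMSO controls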
THZ1 = compound: CN(C)C/C=C/C(=O)Nc1ccc(C(=O)Nc2cccc(Nc3ncc(Cl)c(-c4c[nH]c5ccccc45)n3)c2)cc1 [THZ1]; experiment: as above
THZ531 = compound: CN(C)C/C=C/C(=O)Nc1ccc(C(=O)N2CCC[C@@H](Nc3ncc(Cl)c(-c4c[nH]c5ccccc45)n3)C2)cc1 [THZ531]; experiment: as above
LEE011/Ribociclib = compound: CN(C)C(=O)c1cc2cnc(Nc3ccc(N4CCNCC4)cn3)nc2n1C1CCCC1 [LEE011/Ribociclib]; experiment: as above
Neratinib/HKI272 = compound: CCOc1cc2ncc(C#N)c(Nc3ccc(OCc4ccccn4)c(Cl)c3)c2cc1NC(=O)/C=C/CN(C)C [Neratinib/HKI272]; experiment: as above
BSJ-03-123 = compound: CC(=O)c1c(C)c2cnc(Nc3ccc(N4CCN(CCOCCOCCOCCNC(=O)COc5cccc6c5C(=O)N(C5CCC(=O)NC5=O)C6=O)CC4)cn3)nc2n(C2CCCC2)c1=O [BSJ-03-123]; experiment: as above
[2] = compound: CC(=O)c1c(C)c2cnc(Nc3ccc(N4CCNCC4)cn3)nc2n(C2CCCC2)c1=O; experiment: as above
YKL-5-124 = compound: C=CC(=O)Nc1ccc(C(=O)Nc2[nH]nc3c2CN(C(=O)N[C@H](CN(C)C)c2ccccc2)C3(C)C)cc1 [YKL-5-124]; experiment: as above
[3] = compound: CCc1cnn2c(NCc3ccc[n+]([O-])c3)cc(N3CCCC[C@H]3CCO)nc12; experiment: as above
[4] = compound: CCN1CCN(Cc2ccc(Nc3ncc(F)c(-c4cc(F)c5nc(C)n(C(C)C)c5c4)n3)nc2)CC1; experiment: as above
Flavopiridol [5] = compound: T1, Flavopiridol
ABT-737 = compound: CN(C)CC[C@H](CSc1ccccc1)Nc1ccc(S(=O)(=O)NC(=O)c2ccc(N3CCN(Cc4ccccc4-c4ccc(Cl)cc4)CC3)cc2)cc1[N+](=O)[O-] [ABT-737]
[6] = compound: CO[C@@H](C)Cn1c(=O)n(C)c2cnc3ccc(-c4cncc(C(C)(C)O)c4)cc3c21
Taselisib/GDC0032 = compound: Cc1nc(-c2cn3c(n2)-c2ccc(-c4cnn(C(C)(C)C(N)=O)c4)cc2OCC3)n(C(C)C)n1 [Taselisib/GDC0032]
Saracatinib/AZD0530 = compound: CN1CCN(CCOc2cc(OC3CCOCC3)c3c(Nc4c(Cl)ccc5c4OCO5)ncnc3c2)CC1 [Saracatinib/AZD0530]
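Wherever GR50, 72 h is given: breast cancer and non-malignant breast epithelial cell lines, Deep Dye Drop or Dye Drop imaging, nine half-log doses, GR normalized to time-zero plates and DMSO-only controls.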

HCC1937
GR value (Flavopiridol [1]; 0.0001 µM): 1.08 GR
GR value (Flavopiridol [1]; 0.0003162 µM): 1.02 GR
GR value (Flavopiridol [1]; 0.001 µM): 0.946 GR
GR value (Flavopiridol [1]; 0.003162 µM): 1.01 GR
GR value (Flavopiridol [1]; 0.01 µM): 0.918 GR
GR value (Flavopiridol [1]; 0.03162 µM): 1.01 GR
GR value (Flavopiridol [1]; 0.1 µM): 0.691 GR
GR value (Flavopiridol [1]; 0.3162 µM): 0.19 GR
GR value (Flavopiridol [1]; 1 µM): -0.211 GR
GR value (THZ1; 0.0001 µM): 0.926 GR
GR value (THZ1; 0.0003162 µM): 0.922 GR
GR value (THZ1; 0.001 µM): 0.98 GR
GR value (THZ1; 0.003162 µM): 1.05 GR
GR value (THZ1; 0.01 µM): 1.14 GR
GR value (THZ1; 0.03162 µM): 0.808 GR
GR value (THZ1; 0.1 µM): 0.104 GR
GR value (THZ1; 0.3162 µM): -0.107 GR
GR value (THZ1; 1 µM): -0.38 GR
GR value (THZ531; 0.0001 µM): 0.85 GR
GR value (THZ531; 0.0003162 µM): 1 GR
GR value (THZ531; 0.001 µM): 0.958 GR
GR value (THZ531; 0.003162 µM): 1.01 GR
GR value (THZ531; 0.01 µM): 1.09 GR
GR value (THZ531; 0.03162 µM): 1.16 GR
GR value (THZ531; 0.1 µM): 0.954 GR
GR value (THZ531; 0.3162 µM): 0.219 GR
GR value (THZ531; 1 µM): -0.302 GR
GR value (LEE011/Ribociclib; 0.001 µM): 0.945 GR
GR value (LEE011/Ribociclib; 0.003162 µM): 0.893 GR
GR value (LEE011/Ribociclib; 0.01 µM): 1.14 GR
GR value (LEE011/Ribociclib; 0.03162 µM): 1.02 GR
GR value (LEE011/Ribociclib; 0.1 µM): 1 GR
GR value (LEE011/Ribociclib; 0.3162 µM): 0.875 GR
GR value (LEE011/Ribociclib; 1 µM): 0.964 GR
GR value (LEE011/Ribociclib; 3.162 µM): 1.02 GR
GR value (LEE011/Ribociclib; 10 µM): 1.11 GR
GR value (Neratinib/HKI272; 0.0003162 µM): 0.987 GR
GR value (Neratinib/HKI272; 0.001 µM): 1.03 GR
GR value (Neratinib/HKI272; 0.003162 µM): 0.951 GR
GR value (Neratinib/HKI272; 0.01 µM): 0.945 GR
GR value (Neratinib/HKI272; 0.03162 µM): 0.897 GR
GR value (Neratinib/HKI272; 0.1 µM): 0.824 GR
GR value (Neratinib/HKI272; 0.3162 µM): 0.735 GR
GR value (Neratinib/HKI272; 1 µM): 0.633 GR
GR value (Neratinib/HKI272; 3.162 µM): 0.295 GR
GR value (BSJ-03-123; 0.001 µM): 1.11 GR
GR value (BSJ-03-123; 0.003162 µM): 1.04 GR
GR value (BSJ-03-123; 0.01 µM): 0.933 GR
GR value (BSJ-03-123; 0.03162 µM): 1.05 GR
GR value (BSJ-03-123; 0.1 µM): 0.961 GR
GR value (BSJ-03-123; 0.3162 µM): 1.03 GR
GR value (BSJ-03-123; 1 µM): 0.918 GR
GR value (BSJ-03-123; 3.162 µM): 0.977 GR
GR value (BSJ-03-123; 10 µM): 0.525 GR
GR value ([2]; 0.0003162 µM): 1.04 GR
GR value ([2]; 0.001 µM): 1.1 GR
GR value ([2]; 0.003162 µM): 1.13 GR
GR value ([2]; 0.01 µM): 1.1 GR
GR value ([2]; 0.03162 µM): 1.06 GR
GR value ([2]; 0.1 µM): 1.03 GR
GR value ([2]; 0.3162 µM): 0.99 GR
GR value ([2]; 1 µM): 1.07 GR
GR value ([2]; 3.162 µM): 1.07 GR
GR value (YKL-5-124; 0.001 µM): 0.676 GR
GR value (YKL-5-124; 0.003162 µM): 0.451 GR
GR value (YKL-5-124; 0.01 µM): 0.249 GR
GR value (YKL-5-124; 0.03162 µM): 0.165 GR
GR value (YKL-5-124; 0.1 µM): 0.0669 GR
GR value (YKL-5-124; 0.3162 µM): 0.0473 GR
GR value (YKL-5-124; 1 µM): -0.0273 GR
GR value (YKL-5-124; 3.162 µM): -0.052 GR
GR value (YKL-5-124; 10 µM): -0.196 GR
GR value ([3]; 0.0001 µM): 1.02 GR
GR value ([3]; 0.0003162 µM): 1.03 GR
GR value ([3]; 0.001 µM): 1.06 GR
GR value ([3]; 0.003162 µM): 1.1 GR
GR value ([3]; 0.01 µM): 0.983 GR
GR value ([3]; 0.03162 µM): 0.0186 GR
GR value ([3]; 0.1 µM): -0.185 GR
GR value ([3]; 0.3162 µM): -0.211 GR
GR value ([3]; 1 µM): -0.206 GR
GR value ([4]; 0.001 µM): 1.03 GR
GR value ([4]; 0.003162 µM): 1.04 GR
GR value ([4]; 0.01 µM): 1.06 GR
GR value ([4]; 0.03162 µM): 1.08 GR
GR value ([4]; 0.1 µM): 0.973 GR
GR value ([4]; 0.3162 µM): 0.941 GR
GR value ([4]; 1 µM): 0.81 GR
GR value ([4]; 3.162 µM): 0.598 GR
GR value ([4]; 10 µM): 0.321 GR
GR50, 72 h (Flavopiridol [5]): 0.168 µM
GR50, 72 h (ABT-737): 5.77 µM
GR50, 72 h [6]: 0.139 µM
GR50, 72 h (Taselisib/GDC0032): 1.23 µM
GR50, 72 h (Saracatinib/AZD0530): > 10 µM
